Data on twelve compounds can be found in ChEMBL document CHEMBL3860077, “Synthesis and pharmacological evaluation of conformationally constrained glutamic acid higher homologues” (Bioorg Med Chem, 2016).

Where only a bound is given, the exact number is not on record here.

Assay [1] is described as follows: Displacement of [3H]-KAIN from kainic acid receptor in rat cortical membranes by scintillation counting method. It counts as cell membranes.
Assay [2] is described as follows: Displacement of [3H]-AMPA from AMPA receptor in rat cortical membranes by scintillation counting method. It counts as cell membranes. For orientation: Displacement assays read how much labelled ligand stays bound in the presence of the test substance.
Assay [3] is described as follows: Displacement of [3H]-KAIN from kainic acid receptor in Sprague-Dawley rat brain synaptic membranes after 60 mins by scintillation counting method.
Assay [4] deals with Glutamate NMDA receptor. The assay can be described thus: Displacement of [3H]-CGP39653 from NMDA receptor in Sprague-Dawley rat brain synaptic membranes after 60 mins by scintillation counting method.
Assay [5] in a line: Displacement of [3H]-AMPA from AMPA receptor in Sprague-Dawley rat brain synaptic membranes after 30 mins by scintillation counting method.

In the case of `N[C@@H](C[C@H]1CC(C(=O)O)=NO1)C(=O)O` (racemic), the IC50 in assay [1] and in assay [2] was over 100 µM in each case.

For the compound `N[C@@H](C[C@@H]1CC(C(=O)O)=NO1)C(=O)O` (racemic), the IC50 in assay [1] and in assay [2] was over 100 µM each time.

On to `N[C@@H](C[C@@H]1CC(c2ccc(C(=O)O)cc2)=NO1)C(=O)O` (racemic), for which the IC50 in assay [3] and in assay [5] was over 100 µM each time. The inhibition constant (Ki) in assay [4] was over 100 µM.

For `N[C@@H](C[C@@H]1CC(/C=C/C(=O)O)=NO1)C(=O)O` (racemic), the IC50 in assay [3] and in assay [5] was over 100 µM in each case. The Ki in assay [4] is over 100 µM.

In assay [3], `N[C@@H](C[C@@H]1CC(CCC(=O)O)=NO1)C(=O)O` (racemic) came in with an IC50 of over 100 µM. In assay [4], this compound had a Ki of 13 µM and a pKi of 4.91. In assay [5], this compound registered an IC50 of over 100 µM.

As for `N[C@@H](C[C@@H]1CC(c2ccccc2C(=O)O)=NO1)C(=O)O` (racemic), the IC50 in assay [3] and in assay [5] was over 100 µM throughout. The compound further yielded a Ki in assay [4] of 3.6 µM.

In the case of `N[C@@H](C[C@H]1CC(c2ccc(C(=O)O)cc2)=NO1)C(=O)O` (racemic), the IC50 in assay [3] and in assay [5] was over 100 µM in each case. Also, in assay [4], the Ki was over 100 µM.

For `N[C@@H](C[C@H]1CC(CCC(=O)O)=NO1)C(=O)O` (racemic), the IC50 in assay [3] and in assay [5] was over 100 µM in each case. This compound also displayed a Ki in assay [4] of over 100 µM.

Regarding `N[C@@H](C[C@H]1CC(c2ccccc2C(=O)O)=NO1)C(=O)O` (racemic), the IC50 in assay [3] is over 100 µM. In assay [4], this compound gave a Ki of 22 µM and a negative-log Ki (pKi) of 4.69. In addition, the IC50 in assay [5] was over 100 µM.

For `N[C@@H](C[C@@H]1CC(c2cccc(C(=O)O)c2)=NO1)C(=O)O` (racemic), the 50% inhibitory concentration (IC50) in assay [3] and in assay [5] was over 100 µM throughout. The affinity in assay [4], expressed as Ki, was 22 µM.

Take `N[C@@H](C[C@H]1CC(c2cccc(C(=O)O)c2)=NO1)C(=O)O` (racemic): the IC50 in assay [3] and in assay [5] was over 100 µM throughout. In addition, the Ki in assay [4] turned out to be 100 µM.

Consider `N[C@@H](C[C@H]1CC(/C=C/C(=O)O)=NO1)C(=O)O` (racemic), for which the 50% inhibitory concentration (IC50) in assay [3] and in assay [5] was over 100 µM in each case. In addition, in assay [4], affinity was put at a Ki of 68 µM.

One may read the IC50 as the concentration that inhibits the measured activity by half. Low values mean inhibition by little substance, high ones a need for much substance. For orientation: Ki means the equilibrium dissociation constant of an inhibitor or competing ligand from its target. Higher therefore signals weaker binding. Usually pKi stands for the negative decadic logarithm of the Ki, by convention in mol/L. High values mean a low Ki, low ones a high Ki.
